In patent publication US20100098689A1, “4-1 bb ligand in inflammatory diseases” (The Scripps Research Institute, priority 2006, published 2010):
Peptide text beside a SMILES is read from it. * marks the point of attachment. Cbz = O=C(OCc1ccccc1)*

Assays:
Type in all cases: cell-based, mouse
TNF mRNA = experiment: Semiquantitative PCR of LPS-induced TNF mRNA in peritoneal macrophages; settings: preincubated 1 hour with brefeldin A 3 μg/mL
Procedure: (A) Immunoblot of 4-1BBL in lysates from wild-type macrophages and macrophages deficient in TLR4 (TLR4 KO), MyD88 (MyD88 KO) or TRIF (TRIF KO), treated with LPS (time, above lanes). LPS induces quick expression of 4-1BBL in macrophages in a TLR4-, MyD88-, and TRIF-dependent manner. (B) Semiquantitative PCR of 4-1BBL mRNA in wild-type macrophages left without pretreatment (None) or pretreated for 1 hour with inhibitors of NF-κB (20 μM sulfasalazine), p38 (10 μM SB203580), Jnk (5 μM SP600125) or MEK (10 μM PD98059) and then treated with LPS (time, above lanes). […] (C) Real-time RCR analysis of the stability of LPS-induced 4-1BBL mRNA (1 hour of treatment; LPS) or ectopically expressed 4-1BBL mRNA at 18 hour after infection with recombinant adenovirus encoding 4-1BBL (Adv). Actinomycin D was used to inhibit transcription. Values are the percent remaining relative to the value at 0 hour (set at 100%). LPS-induced alterations in mRNA stability were also involved in LPS-induced 4-1BBL expression. […]
To determine whether the newly synthesized 4-1BBL needs to be on the cell surface in order to regulate the expression of TNF, peritoneal macrophages were preincubated with or without brefeldin A (3 μg/mL) for 1 hour and were then treated with LPS for the indicated times. […] 4-1BBL and TNF mRNA were analyzed by semiquantitative PCR. […]

4-1BBL mRNA = experiment: Semiquantitative PCR of LPS-induced 4-1BBL mRNA in macrophages; settings: for LPS-induced 4-1BBL mRNA / 4-1BBL expression: pretreated 1 hour with 20 μM sulfasalazine, 10 μM SB203580, 5 μM SP600125 or 10 μM PD98059, then LPS, MG-132 data not shown
Procedure: (A) Immunoblot of 4-1BBL in lysates from wild-type macrophages and macrophages deficient in TLR4 (TLR4 KO), MyD88 (MyD88 KO) or TRIF (TRIF KO), treated with LPS (time, above lanes). LPS induces quick expression of 4-1BBL in macrophages in a TLR4-, MyD88-, and TRIF-dependent manner. (B) Semiquantitative PCR of 4-1BBL mRNA in wild-type macrophages left without pretreatment (None) or pretreated for 1 hour with inhibitors of NF-κB (20 μM sulfasalazine), p38 (10 μM SB203580), Jnk (5 μM SP600125) or MEK (10 μM PD98059) and then treated with LPS (time, above lanes). […] (C) Real-time RCR analysis of the stability of LPS-induced 4-1BBL mRNA (1 hour of treatment; LPS) or ectopically expressed 4-1BBL mRNA at 18 hour after infection with recombinant adenovirus encoding 4-1BBL (Adv). Actinomycin D was used to inhibit transcription. Values are the percent remaining relative to the value at 0 hour (set at 100%). LPS-induced alterations in mRNA stability were also involved in LPS-induced 4-1BBL expression. (D) Flow cytometry of 4-1BBL expression by wild-type peritoneal macrophages treated with LPS (time, key): right, surface expression; left, total expression in cells made permeable with 0.1% saponin. LPS-induced 4-1BBL is located on the cell surface. (E) Immunofluorescence microscopy of wild-type peritoneal macrophages preincubated for 1 hour with (+) or without (−) brefeldin A (3 μg/mL), then treated with LPS (time, left margin) and immunostained with anti-4-1BBL. Original magnification, ×100. Brefeldin A blocks protein translocation to the cell surface by inhibiting its translocation from the endoplasmic reticulum to the Golgi apparatus. (F) Semiquantitative PCR of 4-1BBL and TNF mRNA in lysates of cells treated as described in E. Brefeldin A neither affected the LPS-induced increase in 4-1BBL mRNA nor influenced LPS-induced TNF mRNA after 1 hour, but did reduce TNF mRNA at 2, 4 and 6 hours. GAPDH (A,B,F): glyceraldehyde phosphate dehydrogenase (loading control). Data are representative of three independent experiments.
Semiquantitative PCR was performed as described by Kim et al., J. Exp. Med. 197:1441-52 (2003). For real-time PCR, 0.5 μg of total RNA were used to prepare cDNA using oligo(dT)12 as a primer. The SYBR green PCR Master Mix kit (Applied Biosystems) was used in the real-time PCR analysis.
To determine whether the newly synthesized 4-1BBL needs to be on the cell surface in order to regulate the expression of TNF, peritoneal macrophages were preincubated with or without brefeldin A (3 μg/mL) for 1 hour and were then treated with LPS for the indicated times. Immunostaining was performed using anti-4-1BBL antibodies. 4-1BBL and TNF mRNA were analyzed by semiquantitative PCR. GAPDH was used as control. Brefeldin A is a specific inhibitor that blocks protein translocation to the cell surface by inhibiting its translocation from the endoplasmic reticulum to the Golgi apparatus Klausner et al., J. Cell Biol. 116:1071-1080 (1992) (FIG. 7E).

wild-type macrophages = experiment: ELISA of TNF production by macrophages infected with adenovirus expressing 4-1BBL; settings: inhibitor added 6 h after infection (20 μM sulfasalazine, 10 μM SB203580, 5 μM SP600125, 10 μM PD98059), analyzed 24 hour after infection
Procedure: FIG. 10A-I indicate that two sequential TLR4 complexes exist. (A) Immunoassay of wild-type macrophages treated with LPS (time, above lanes); total cell lysates (Lysates; top) or lysates immunoprecipitated with anti-TLR4, anti-MyD88 or anti-4-1BBL were analyzed by immunoblot with anti-4-1BBL, anti-TLR4 and/or anti-MyD88. Dashed outline, isotype antibody (negative control for immunoprecipitation); solid outlines, positive control for immunoblot of 4-1BBL or MyD88. In LPS-treated macrophages, the MyD88-TLR4 complex is responsible for the initial cellular responses, and the 4-1BBL-TLR4 complex is involved in sustaining TNF production. […] (C) 4-1BBL interacts with TRAF6, but not TRAF2. (D) Knockdown of TRAF6 impaired LPS, PolyI:C, and IL-1β induced cytokine production, but has no effect on TNF-induced IL-6 production. […]

| SMILES | LPS-induced TNF mRNA at 2, 4, and 6 hours (TNF mRNA; LPS 2, 4, 6 hours) | LPS-induced TNF mRNA after 1 hour (TNF mRNA; LPS 1 hour) | LPS-induced increase in 4-1BBL mRNA (4-1BBL mRNA; preincubated 1 hour with brefeldin A 3 μg/mL, then LPS) | LPS-induced 4-1BBL mRNA / 4-1BBL expression (4-1BBL mRNA) | 4-1BBL-mediated TNF production (wild-type macrophages) |
| --- | --- | --- | --- | --- | --- |
| C[C@H]1CCC/C=C/[C@@H]2C[C@H](O)C[C@H]2[C@H](O)/C=C/C(=O)O1 [Brefeldin A] | did reduce | did not influence | did not affect |  |  |
| CC(C)C[C@@H](C=O)NC(=O)[C@H](CC(C)C)NC(=O)[C@H](CC(C)C)NC(=O)OCc1ccccc1 [MG-132] (Cbz-Leu-Leu-Leu-aldehyde) |  |  |  | effectively inhibited |  |
| COc1cccc(-c2cc(=O)c3ccccc3o2)c1N [PD98059] |  |  |  | some inhibitory effects | reduced |
| C[S+]([O-])c1ccc(-c2nc(-c3ccncc3)c(-c3ccc(F)cc3)[nH]2)cc1 (stereo not drawn) [SB203580] |  |  |  | some inhibitory effects | reduced |
| O=C(O)c1cc(/N=N/c2ccc(S(=O)(=O)Nc3ccccn3)cc2)ccc1O [sulfasalazine] |  |  |  | effectively inhibited |  |
